Test system: GDF8 signaling (p-SMAD-3 (Ser423/425))
Assay: AlphaScreen SureFire SMAD3 (p-Ser423/425) assay, GDF8-stimulated cells (GDF pSMAD)
Format: cell-based
Conditions: MPC11; GDF8-stimulated; p-SMAD3 AlphaScreen; read-out: GDF pSMAD (MPC11) (inhibition of GDF8 signaling)
From the text: Biological Example 1: AlphaScreen® SureFire® SMAD3 (p-Ser423/425) Assay
The p-SMAD-3 (Ser423/425) SureFire® assay has been designed to measure the phosphorylation of endogenous cellular p-SMAD-3 (Ser423/425) in cell lysates and is a system for the screening of both modulators of receptor activation (e.g. agonists and antagonists) as well as agents acting intracellularly, such as small molecule inhibitors of upstream events. The assay will measure p-SMAD-3 (Ser423/425) activation by either cloned or endogenous receptors, and can be applied to primary cells.
P-SMAD-3 (Ser423/425) SureFire® Assay Protocols
Step A: Preparation of Buffers
1× Lysis buffer: 1 ml of 5× Lysis buffer was diluted with 4 ml of sterile water. After dilution, excess 1× Lysis buffer can be frozen and thawed up to 5 times without loss in activity.
Activation buffer: The buffer was warmed slowly to 37° C. and gently mixed to re-suspend. Activation buffer can be stored at room temperature with no loss in activity.
Reaction buffer: The buffer was kept at 4° C. while in use.
AlphaScreen® Protein A IgG Kit: The kit was stored at 4° C. in the dark.
Reaction buffer+Activation buffer+AlphaScreen® Acceptor beads: Reaction buffer (40 parts), Activation Buffer (10 parts) and Acceptor beads (1 part) were mixed and the mixture was stored at room temperature and used the same day. Mixture was added to 384-well plates; excess mixture was discarded.
Dilution buffer+AlphaScreen® Donor beads: Dilution buffer (20 parts) and Donor beads (1 part) were mixed and the mixture was stored at room temperature and used the same day. Excess mixture was discarded.
Assay control samples: After reconstitution in 250 μl of water, lysates were at −20° C. in single use aliquots.
Step B: Preparation of Samples and Cells
96-well Assay Protocol for 293FT and RMS13 adherent cells can be carried out manually or in high throughput with liquid handling robots.
The cells (80 μL of cells for 96 well plates) were plated in collagen coated tissue culture plates in RPMI or FreeStyle medium (Invitrogen) and incubated overnight. For manual analysis, 6 plates for GDF8, 6 plates for TGFβ, and optionally 6 plates for AlkSca(ALK5 constitutively active) were used.
The compound dilution plates were prepared as follows: 12 μL of DMSO was transferred into first column of 96-well plate, and 16 μL of DMSO was transferred into columns 2-12 of the 96-well plate. 12 μL of compound solution was transferred into first column of the DMSO-containing 96-well plate. Three-fold dilution was performed up to column 10 of the DMSO-containing 96-well plate.
Step C: Treatment and Analysis
The plate containing cells were treated with compounds for about 10 minutes, and then ligand was added. GDF8 or TGFb was added to plates to stimulate. 293FL cells were stimulated for 90 minutes at 37° C.; and RMS13 cells were stimulated for 60 minutes at 37° C. The medium was then removed from the cells, and 1× Lysis Buffer (about 25 μL) was added and the plate was gently agitated on plate shaker for 5-10 minutes.
The lysate (5 μL) was then placed into 384-well shallow plates avoiding the generation of bubbles. To this, the Reaction Buffer+Activation Buffer+AlphaScreen® Acceptor beads mixture (5 μL) was added. The plate was sealed with adhesive cover and shielded from light (e.g., with metal foil), and agitated gently on plate shaker for 2 hours at room temperature.
Dilution buffer+AlphaScreen® Donor beads (2 μL) was then added, and the plate was intubated on the plate shaker for an additional 1½ hours. After completion, the plate was read on Synergy-4 or Enspire plate reader, using AlphaScreen® pSMAD3® settings.
Representative results for inhibition of GDF8 signaling are shown in Table 2(data=GDF pSMAD (MPC11) (μM)): […]

`Cc1cc(-c2ncccc2-c2ccc3ncn(CCCN4CCN(C)CC4)c3c2)ccc1F` [Compound 40, 6-(2-(4-Fluoro-3-methylphenyl)pyridin-3-yl)-1-(3-(4-methylpiperazin-1-yl)propyl)-1H-benzo[d]imidazole] gave an IC50 of 18500 nM.

Same assay, conditions: Mus musculus, MPC-11, MPC11; GDF8-stimulated; p-SMAD3 AlphaScreen; read-out: GDF pSMAD (MPC11) (inhibition of GDF8 signaling)

First: Cc1cc(-c2ncccc2-c2ccc3ncn(CCCO)c3c2)ccc1F [Compound 41, 3-(6-(2-(4-Fluoro-3-methylphenyl)pyridin-3-yl)-1H-benzo[d]imidazol-1-yl)propan-1-ol]
Second: CCOCCCn1cnc2ccc(-c3cccnc3-c3ccc(F)c(C)c3)cc21 [Compound 42, 1-(3-Ethoxypropyl)-6-(2-(4-fluoro-3-methylphenyl)pyridin-3-yl)-1H-benzo[d]imidazole]
The IC50 of the first is 3.3-fold lower: 3140 nM for the first, 10500 nM for the second.

`CCn1cnc2ccc(-c3cccnc3-c3cccc(C)c3)cc21` [Compound 43, 1-Ethyl-6-(2-m-tolylpyridin-3-yl)-1H-benzo[d]imidazole] and `CCn1cnc2ccc(-c3cccnc3-c3ccc(F)c(C)c3)cc21` [Compound 46, 1-Ethyl-6-(2-(4-fluoro-3-methylphenyl)pyridin-3-yl)-1H-benzo[d]imidazole] are within 1.5-fold of each other in IC50: 1620 nM for the first, 1730 nM for the second.

Going from `Cc1cc(-c2ncccc2-c2ccc3ncn(C(C)C)c3c2)ccc1F` [Compound 48, 6-(2-(4-Fluoro-3-methylphenyl)pyridin-3-yl)-1-isopropyl-1H-benzo[d]imidazole] to `Cc1cc(-c2ncccc2-c2ccc3[nH]ncc3c2)ccc1F` [Compound 63, 5-(2-(4-Fluoro-3-methylphenyl)pyridin-3-yl)-1H-indazole], the IC50 falls from 8380 nM to 142 nM (59-fold). The second is the more potent here.

Compared with `N#Cc1cccc(-c2ncccc2-c2ccc3nccn3c2)c1` [Compound 51, 3-(3-(Imidazo[1,2-a]pyridin-6-yl)pyridin-2-yl)benzonitrile], `COc1cccc(-c2ncccc2-c2ccc3nccn3c2)c1` [Compound 52, 6-(2-(3-Methoxyphenyl)pyridin-3-yl)imidazo[1,2-a]pyridine] is 3.9-fold lower in IC50: 5440 nM for the first, 1400 nM for the second. The second is the more potent here.

Compared with `Fc1ccc(-c2ncccc2-c2ccc3nccn3c2)cc1` [Compound 53, 6-(2-(4-Fluorophenyl)pyridin-3-yl)imidazo[1,2-a]pyridine], `Fc1ccc(-c2ncccc2-c2ccc3[nH]ncc3c2)cc1` [Compound 66, 5-[2-(4-Fluorophenyl)pyridin-3-yl]-1H-indazole] is 7.5-fold lower in IC50: 13400 nM for the first, 1780 nM for the second.

`Fc1ccccc1-c1ncccc1-c1ccc2[nH]ncc2c1` [Compound 61, 5-(2-(2-Fluorophenyl)pyridin-3-yl)-1H-indazole] and `Fc1ccc(-c2ncccc2-c2ccc3[nH]ncc3c2)c(F)c1` [Compound 70, 5-[2-(2,4-Difluorophenyl)pyridin-3-yl]-1H-indazole] are within 1.5-fold of each other in IC50: 3880 nM for the first, 5700 nM for the second.

First: Fc1ccc(-c2ncccc2-c2ccc3[nH]ncc3c2)cc1F [Compound 62, 5-(2-(3,4-Difluorophenyl)pyridin-3-yl)-1H-indazole]
Second: Fc1ccc(-c2ncccc2-c2ccc3cn[nH]c3c2)cc1F [Compound 98, 6-(2-(3,4-Difluorophenyl)pyridin-3-yl)-1H-indazole]
The IC50 of the first is 13-fold lower: 804 nM for the first, 10300 nM for the second. The first is the more potent here.

Going from `c1cnc(-c2ccc3[nH]ncc3c2)c(-c2ccc3[nH]ncc3c2)c1` [Compound 64, 5-(3-(1H-Indazol-5-yl)pyridin-2-yl)-1H-indazole] to `Cc1cc(-c2ncccc2-c2ccc3[nH]ncc3c2)ccc1N` [Compound 90, 4-(3-(1H-Indazol-5-yl)pyridin-2-yl)-2-methylbenzenamine], the IC50 rises from 840 nM to 2610 nM (3.1-fold).

Going from `Fc1cccc(-c2ncccc2-c2ccc3[nH]ncc3c2)c1` [Compound 65, 5-[2-(3-Fluorophenyl)pyridin-3-yl]-1H-indazole] to `Fc1cccc(-c2ncccc2-c2ccc3cn[nH]c3c2)c1` [Compound 100, 6-(2-(3-Fluorophenyl)pyridin-3-yl)-1H-indazole], the IC50 rises from 2240 nM to 6030 nM (2.7-fold).

Compared with `Fc1cc(F)cc(-c2ncccc2-c2ccc3[nH]ncc3c2)c1` [Compound 67, 5-[2-(3,5-Difluorophenyl)pyridin-3-yl]-1H-indazole], `Cc1cc(C)cc(-c2ncccc2-c2ccc3[nH]ncc3c2)c1` [Compound 71, 5-[2-(3,5-Dimethylphenyl)pyridin-3-yl]-1H-indazole] is 3.9-fold higher in IC50: 1810 nM for the first, 7010 nM for the second.

First: Cc1cccc(-c2ncccc2-c2ccc3[nH]ncc3c2)c1 [Compound 68, 5-(2-m-Tolylpyridin-3-yl)-1H-indazole]
Second: Cc1cccc(-c2ncccc2-c2ccc3cn[nH]c3c2)c1 [Compound 102, 6-(2-m-Tolylpyridin-3-yl)-1H-indazole]
The IC50 of the first is 1.8-fold lower: 186 nM for the first, 341 nM for the second.

First: Cc1ccc(F)c(-c2ncccc2-c2ccc3[nH]ncc3c2)c1 [Compound 73, 5-(2-(2-Fluoro-5-methylphenyl)pyridin-3-yl)-1H-indazole]
Second: OCc1cc(-c2ncccc2-c2ccc3[nH]ncc3c2)ccc1F [Compound 89, (5-(3-(1H-Indazol-5-yl)pyridin-2-yl)-2-fluorophenyl)methanol]
The IC50 of the first is 5.1-fold lower: 497 nM for the first, 2550 nM for the second.

Going from `Nc1cccc(-c2ncccc2-c2ccc3[nH]ncc3c2)c1` [Compound 75, 5-(2-(3-Aminophenyl)pyridin-3-yl)-1H-indazole] to `Oc1cccc(-c2ncccc2-c2ccc3[nH]ncc3c2)c1` [Compound 120, 3-(3-(1H-Indazol-5-yl)pyridin-2-yl)phenol], the IC50 falls from 3470 nM to 364 nM (9.5-fold). The second is the more potent here.

First: CS(=O)(=O)Nc1cccc(-c2ncccc2-c2ccc3[nH]ncc3c2)c1 [Compound 76, 5-(2-(3-Methylsulfphonylaminophenyl)pyridin-3-yl)-1H-indazole]
Second: COc1cccc(-c2ncccc2-c2ccc3[nH]ncc3c2)c1 [Compound 117, 5-(2-(3-Methoxyphenyl)pyridin-3-yl)-1H-indazole]
The IC50 of the first is 10-fold higher: 1820 nM for the first, 179 nM for the second. The second is the more potent here.

Going from `Fc1ccc(-c2ncccc2-c2cnc3[nH]ncc3c2)cc1F` [Compound 77, 5-(2-(3,4-Difluorophenyl)pyridin-3-yl)-1H-pyrazolo[3,4-b]pyridine] to `Cc1cc(-c2ncccc2-c2cnc3[nH]ncc3c2)ccc1F` [Compound 78, 5-(2-(4-Fluoro-3-methylphenyl)pyridin-3-yl)-1H-pyrazolo[3,4-b]pyridine], the IC50 falls from 3650 nM to 316 nM (12-fold). The second is the more potent here.

Going from `Cc1cccc(-c2ncccc2-c2cnc3[nH]ncc3c2)c1` [Compound 79, 5-(2-m-Tolylpyridin-3-yl)-1H-pyrazolo[3,4-b]pyridine] to `Fc1ccc(-c2ncccc2-c2cnc3[nH]ncc3c2)cc1` [Compound 80, 5-(2-(4-Fluorophenyl)pyridin-3-yl)-1H-pyrazolo[3,4-b]pyridine], the IC50 rises from 264 nM to 6330 nM (24-fold). The first is the more potent here.

First: OCc1cccc(-c2ncccc2-c2ccc3[nH]ncc3c2)c1 [Compound 91, [3-(3-(1H-Indazol-5-yl)pyridin-2-yl)phenyl]methanol]
Second: N#Cc1cccc(-c2ncccc2-c2ccc3[nH]ncc3c2)c1 [Compound 112, 3-(3-(1H-Indazol-5-yl)pyridin-2-yl)benzonitrile]
The IC50 of the first is 11-fold higher: 3030 nM for the first, 273 nM for the second. The second is the more potent here.

Compared with `Fc1ccc(-c2ncccc2-c2ccc3[nH]ncc3c2)cc1C(F)(F)F` [Compound 93, 5-(2-(4-Fluoro-3-(trifluoromethyl)phenyl)pyridin-3-yl)-1H-indazole], `Cc1cc(-c2ncccc2-c2ccc3cn[nH]c3c2)ccc1F` [Compound 99, 6-(2-(4-Fluoro-3-methylphenyl)pyridin-3-yl)-1H-indazole] is 5.4-fold lower in IC50: 4840 nM for the first, 894 nM for the second. The second is the more potent here.

Compared with `Fc1ccc(-c2ncccc2-c2ccc3cn[nH]c3c2)cc1` [Compound 101, 6-(2-(4-Fluorophenyl)pyridin-3-yl)-1H-indazole], `COc1ccc(-c2ncccc2-c2ccc3[nH]ncc3c2)cc1` [Compound 118, 5-(2-(4-Methoxyphenyl)pyridin-3-yl)-1H-indazole] is 3-fold lower in IC50: 11200 nM for the first, 3780 nM for the second.

`Cc1cccc(-c2ncccc2-c2ccc3c(c2)OCO3)c1` [Compound 109, 3-(Benzo[d][1,3]dioxol-6-yl)-2-m-tolylpyridine] was tested, and the IC50 was 17200 nM.
